“And” between values parts separate entries of the source, which are not always exact repeats. Equal values may be shown once.
Assay: xn = mol fraction of the nth substance listed

C=CC[n+]1ccn(C)c1.[Cl-] + O
101 kPa
Conditions | viscosity [mPa·s]
298.15 K, x2 = 0.193 | 697
298.15 K, x2 = 0.267 | 427
303.15 K, x2 = 0.335 | 184
313.15 K, x2 = 0.045 | 473
313.15 K, x2 = 0.126 | 312
323.15 K, x2 = 0.335 | 61
333.15 K, x2 = 0.091 | 108
353.15 K, x2 = 0.126 | 36.9
353.15 K, x2 = 0.267 | 24.3
363.15 K, x2 = 0.091 | 28.6
363.15 K, x2 = 0.126 | 25.6
373.15 K, x2 = 0.126 | 18.58
373.15 K, x2 = 0.193 | 15.98
373.15 K, x2 = 0.267 | 13.37

CCCCCCCCCCCCCC[N+](C)(C)C.[Br-] + O
298.15 K, 101 kPa
Conditions | viscosity [mPa·s]
x1 = 2.973e-05 | 0.8984
x1 = 4.144e-05 | 0.8992
x1 = 4.541e-05 | 0.9002
x1 = 6.289e-05 | 0.9005
x1 = 6.739e-05 | 0.9013
x1 = 7.262e-05 | 0.9019
x1 = 0.0001005 | 0.9029
x1 = 0.0001191 | 0.9053
x1 = 0.000178 | 0.9083

CCCCCCCCCCCC[n+]1ccn(C)c1.[Br-] + O
298.15 K, 100 kPa, frequency 0.001 MHz
Conditions | electrical conductivity [S/m]
x1 = 3.604e-05 | 0.018
x1 = 7.207e-05 | 0.036
x1 = 9.009e-05 | 0.045
x1 = 0.0001081 | 0.054
x1 = 0.0001261 | 0.065
x1 = 0.0001441 | 0.072
x1 = 0.0001622 | 0.081
x1 = 0.0001802 | 0.089
x1 = 0.0002522 | 0.101
x1 = 0.0003242 | 0.111

CCCCCCCCCCCn1cc[n+](C)c1.O=S(=O)([N-]S(=O)(=O)C(F)(F)F)C(F)(F)F + O
Conditions | viscosity [mPa·s]
338.15 K, 100 kPa, x2 = 0.1567 | 20.54

CCCCC[n+]1ccccc1.N#C[N-]C#N + O
100 kPa
Conditions | electrical conductivity [S/m] | viscosity [mPa·s]
298.15 K, x1 = 0.9354 | 0.667 | –
303.15 K, x1 = 0.9354 | 0.833 | –
308.15 K, x1 = 0.9514 | – | 28.8
308.15 K, x1 = 0.9515 | 0.979 | –
308.15 K, x1 = 0.968 | – | 29.6
313.15 K, x1 = 0.9196 | – | 22.92
313.15 K, x1 = 0.9198 | 1.23 | –
318.15 K, x1 = 0.9681 | 1.27 | –
318.15 K, x2 = 0.01457 | 1.23 | –
323.15 K, x1 = 0.9196 | – | 15.16
323.15 K, x1 = 0.9198 | 1.67 | –
323.15 K, x1 = 0.968 | – | 16.91
323.15 K, x1 = 0.9681 | 1.5 | –
323.15 K, x2 = 0.01492 | – | 17.54
328.15 K, x1 = 0.9351 | – | 14.21
328.15 K, x1 = 0.9354 | 1.82 | –
328.15 K, x2 = 0.01457 | 1.65 | –
328.15 K, x2 = 0.01492 | – | 15.11
338.15 K, x1 = 0.9514 | – | 11.11
338.15 K, x1 = 0.9515 | 2.23 | –

CCCC[N+](C)(CCCC)CCCC.[Cl-] + O
viscosity
Conditions | 293.15 K | 298.15 K | 303.15 K | 308.15 K | 313.15 K
100 kPa, x1 = 0.0003603 | 1.01 mPa·s | 0.904 mPa·s | 0.809 mPa·s | 0.726 mPa·s | 0.661 mPa·s
100 kPa, x1 = 0.0007023 | 1.024 mPa·s | 0.914 mPa·s | 0.815 mPa·s | 0.735 mPa·s | 0.671 mPa·s
100 kPa, x1 = 0.001062 | 1.035 mPa·s | 0.93 mPa·s | 0.829 mPa·s | 0.744 mPa·s | 0.686 mPa·s
100 kPa, x1 = 0.001422 | 1.045 mPa·s | 0.941 mPa·s | 0.839 mPa·s | 0.756 mPa·s | 0.694 mPa·s
101.3 kPa, x1 = 0.0003423 | 1.011 mPa·s | 0.904 mPa·s | 0.806 mPa·s | 0.729 mPa·s | 0.662 mPa·s
101.3 kPa, x1 = 0.0007203 | 1.023 mPa·s and 0.98 mPa·s and 1.04 mPa·s | 0.914 mPa·s and 0.88 mPa·s and 0.93 mPa·s | 0.812 mPa·s and 0.74 mPa·s and 0.83 mPa·s | 0.737 mPa·s and 0.65 mPa·s and 0.75 mPa·s | 0.672 mPa·s and 0.67 mPa·s
101.3 kPa, x1 = 0.001062 | 1.036 mPa·s | 0.931 mPa·s | 0.826 mPa·s | 0.747 mPa·s | 0.686 mPa·s
101.3 kPa, x1 = 0.00144 | 1.044 mPa·s and 0.97 mPa·s and 1.08 mPa·s | 0.942 mPa·s and 0.89 mPa·s and 0.96 mPa·s | 0.84 mPa·s and 0.77 mPa·s and 0.86 mPa·s | 0.759 mPa·s and 0.77 mPa·s | 0.695 mPa·s and 0.7 mPa·s

CCCC[n+]1ccn(C)c1.N#C[N-]C#N + O
100 kPa, x1 = 0.6252
Conditions | viscosity [mPa·s]
303 K | 15.03
308 K | 12.94
313 K | 11.27
318 K | 9.91
323 K | 8.77

CCCC[n+]1ccn(C)c1.N#C[S-] + O
101 kPa
Conditions | electrical conductivity [S/m] | viscosity [mPa·s]
298.15 K, x1 = 0.0004503 | 0.224 | –
298.15 K, x1 = 0.0009182 | 0.395 | –
298.15 K, x1 = 0.001853 | 0.716 | –
298.15 K, x1 = 0.00477 | 1.451 | –
298.15 K, x1 = 0.00776 | 1.952 | –
298.15 K, x1 = 0.01001 | 2.3 | –
298.15 K, x2 = 0.2007 | – | 33
298.15 K, x2 = 0.3169 | – | 25.9
298.15 K, x2 = 0.9437 | 4.47 | –
298.15 K, x2 = 0.9626 | 4.02 | –
298.15 K, x2 = 0.9781 | 3.33 | –
308.15 K, x2 = 0.2007 | – | 22.5
318.15 K, x2 = 0.2007 | – | 16.2
318.15 K, x2 = 0.3169 | – | 13.24
318.15 K, x2 = 0.7201 | – | 4.66
328.15 K, x2 = 0 | – | 16.7
328.15 K, x2 = 0.0998 | – | 14.22
328.15 K, x2 = 0.6426 | – | 4.71
328.15 K, x2 = 0.7201 | – | 3.65
338.15 K, x2 = 0.3169 | – | 7.96
338.15 K, x2 = 0.5296 | – | 5.12
338.15 K, x2 = 0.7949 | – | 2.23
348.15 K, x2 = 0.5296 | – | 4.16

CCCC[n+]1ccn(C)c1.N[C@@H](CO)C(=O)[O-] + O
100 kPa
Conditions | electrical conductivity [S/m] | viscosity [mPa·s]
298.15 K, x1 = 0.8281 | 0.00761 | –
298.15 K, x1 = 0.8435 | 0.00711 | –
298.15 K, x1 = 0.8592 | 0.00675 | –
298.15 K, x1 = 0.8757 | 0.00646 | –
298.15 K, x1 = 0.8914 | 0.00609 | –
298.15 K, x1 = 0.8939 | – | 5180
298.15 K, x1 = 0.9163 | – | 5221
303.15 K, x1 = 0.8592 | 0.0107 | –
303.15 K, x1 = 0.8757 | 0.0101 | –
303.15 K, x1 = 0.8914 | 0.00973 | –
303.15 K, x1 = 0.8939 | – | 3031
308.15 K, x1 = 0.8757 | 0.0159 | –
313.15 K, x1 = 0.8939 | – | 1179
313.15 K, x1 = 0.939 | – | 1290
328.15 K, x1 = 0.8435 | 0.078 | –
328.15 K, x1 = 0.8521 | – | 338
328.15 K, x1 = 0.8592 | 0.0738 | –
328.15 K, x1 = 0.8939 | – | 367
328.15 K, x1 = 0.939 | – | 422
333.15 K, x1 = 0.8281 | 0.11 | –
333.15 K, x1 = 0.8592 | 0.1 | –
338.15 K, x1 = 0.8521 | – | 179.9
338.15 K, x1 = 0.8592 | 0.132 | –

CCCCn1cc[n+](CCCC)c1.O=S(=O)([N-]S(=O)(=O)C(F)(F)F)C(F)(F)F + O
100 kPa, x2 = 0.1843
Conditions | viscosity [mPa·s]
308.15 K | 32.12
358.15 K | 7.83
363.15 K | 7.07

CCCn1cc[n+](C)c1.[Br-] + O
Conditions | electrical conductivity | viscosity [mPa·s]
298 K, 101 kPa, x2 = 0.22 | 0.14 S/m and 0.17 S/m | –
298 K, 101 kPa, x2 = 0.88 | 9.16 S/m | –
298 K, 101 kPa, x2 = 0.93 | 9.89 S/m | –
298 K, 101 kPa, x2 = 0.98 | 6.44 S/m | –
303.15 K, 100 kPa, x1 = 0.4005 | – | 29.2
323.15 K, 100 kPa, x1 = 0.0497 | – | 1.09

CCOS(=O)(=O)[O-].CC[N+]1(C)CCCC1 + O
101 kPa
Conditions | viscosity [mPa·s]
313.15 K, x2 = 0 | 78
313.15 K, x2 = 0.105 | 65
318.15 K, x2 = 0 | 65
318.15 K, x2 = 0.7542 | 8.9
323.15 K, x2 = 0.7542 | 7.7
333.15 K, x2 = 0.9652 | 0.99
338.15 K, x2 = 0.6505 | 7.7
338.15 K, x2 = 0.9652 | 0.98
343.15 K, x2 = 0.6505 | 6.6
343.15 K, x2 = 0.9652 | 0.98

CC[NH+](CC)CC.O=S(=O)([O-])O + O
298.15 K, 101 kPa
Conditions | viscosity [mPa·s]
x2 = 0.3012 | 184
x2 = 0.4244 | 169
x2 = 0.6124 | 140
x2 = 0.7344 | 110.8
x2 = 0.9244 | 39.8

CC[n+]1ccn(C)c1.CS(=O)(=O)[O-] + O
100 kPa, frequency 0.003 MHz
Conditions | electrical conductivity [S/m]
293.15 K, x1 = 0.0165 | 3.25
303.15 K, x1 = 0.1122 | 4.74
313.15 K, x1 = 0.3752 | 2.25
323.15 K, x1 = 0.0489 | 8.42
323.15 K, x1 = 0.2034 | 5.15
323.15 K, x1 = 0.3752 | 2.92
323.15 K, x1 = 0.9339 | 0.827
343.15 K, x1 = 0.0165 | 7.59
343.15 K, x1 = 0.0489 | 11.4
353.15 K, x1 = 0.0165 | 8.61
353.15 K, x1 = 0.0489 | 13
353.15 K, x1 = 0.3752 | 5.32
353.15 K, x1 = 0.9339 | 2.01

Conditions | viscosity [mPa·s]
293.15 K, 100 kPa, x1 = 0.0674 | 3.026
298.15 K, 102.2 kPa, x1 = 0.75 | 42.2
303.15 K, 100 kPa, x1 = 0.0177 | 1.135
303.15 K, 100 kPa, x1 = 0.9357 | 115
303.15 K, 102.2 kPa, x1 = 0.75 | 34.3
313.15 K, 100 kPa, x1 = 0.0357 | 1.237
313.15 K, 100 kPa, x1 = 0.1089 | 3.068
313.15 K, 102.2 kPa, x1 = 0.75 | 24
323.15 K, 100 kPa, x1 = 0.0177 | 0.756
323.15 K, 100 kPa, x1 = 0.0357 | 1.012
323.15 K, 100 kPa, x1 = 0.4263 | 12.22
328.15 K, 102.2 kPa, x1 = 0.75 | 15.7
353.15 K, 100 kPa, x1 = 0.0674 | 0.879
353.15 K, 100 kPa, x1 = 0.1848 | 2.346
